Experimental data as given in ChEMBL document CHEMBL3102753, “7-Azaindole-1-carboxamides as a new class of PARP-1 inhibitors” (Bioorg Med Chem, 2014).

Tests used:
HCC1937 = assay: Antiproliferative activity against BRCA1 gene mutated human HCC1937 cells after 72 hrs by SRB assay; format: functional, cell-based
[1] = biological target: T1, Poly [ADP-ribose] polymerase 1 (Homo sapiens, UniProt P09874); assay: Inhibition of recombinant human GST-fused PARP-1 expressed in Escherichia coli after 30 mins by fluorescence assay
[2] = Antiproliferative activity against BRCA2 gene mutated human Capan1 cells after 72 hrs by cell counting; settings: CAPAN-1, 72 h
[3] = Antiproliferative activity against BRCA2 gene mutated human Capan1 cells after 72 hrs by SRB assay; format: functional, cell-based; settings: capan-1
MX1 [4] = assay: Antitumor activity against human MX1 cells harboring BRCA1 deletion and BRCA2 mutant xenografted in SCID mouse assessed as reduction of tumor volume at 100 mg/kg, ip administered every 2 days for 2 weeks measured on day 38 relative to control; format: functional; design: scale not given: the % may be the effect or the level left; settings: route intraperitoneal
[5] = Antiproliferative activity against human A2780/DX cells after 72 hrs by SRB assay; format: functional, cell-based
A2780 [6] = assay: Resistant factor, ratio of IC50 for human A2780/DX cells to IC50 for human A2780 cells; format: functional
Mus musculus [7] = assay: Toxicity in human MX1 cells harboring BRCA1 deletion and BRCA2 mutant xenografted SCID mouse assessed as mortality at 100 mg/kg, ip administered every 2 days for 2 weeks measured on day 38 relative to control; format: organism-based; design: dose 100 mg/kg, route intraperitoneal; settings: in vivo
[8] = biological target: T1, Poly [ADP-ribose] polymerase 1; assay: Inhibition of PARP-1 in human HeLa cells assessed as decrease of H2O2-induced PARylation after 3 hrs by fluorescence assay; format: cell-based
Mus musculus [9] = assay: Toxicity in human MX1 cells harboring BRCA1 deletion and BRCA2 mutant xenografted SCID mouse assessed as reduction of body weight at 100 mg/kg, ip administered every 2 days for 2 weeks measured on day 38 relative to control; format: organism-based; design: dose 100 mg/kg, route intraperitoneal; scale not given: the % may be the effect or the level left; settings: in vivo
A2780 [10] = assay: Antiproliferative activity against human A2780 cells after 72 hrs by SRB assay; format: functional, cell-based; settings: A2780, 72 h
Mus musculus [11] = assay: Toxicity in human MX1 cells harboring BRCA1 deletion and BRCA2 mutant xenografted SCID mouse assessed as mortality at 167 mg/kg, ip administered every 2 days for 2 weeks measured on day 38 relative to control; format: organism-based; design: dose 167 mg/kg, route intraperitoneal; settings: in vivo
Mus musculus [12] = assay: Toxicity in human MX1 cells harboring BRCA1 deletion and BRCA2 mutant xenografted SCID mouse assessed as reduction of body weight at 167 mg/kg, ip administered every 2 days for 2 weeks measured on day 38 relative to control; format: organism-based; design: dose 167 mg/kg, route intraperitoneal; scale not given: the % may be the effect or the level left; settings: in vivo
MX1 [13] = assay: Antitumor activity against human MX1 cells harboring BRCA1 deletion and BRCA2 mutant xenografted in SCID mouse assessed as reduction of tumor volume at 167 mg/kg, ip administered every 2 days for 2 weeks measured on day 38 relative to control; format: functional; design: scale not given: the % may be the effect or the level left; settings: route intraperitoneal
[14] = Homo sapiens, HCC1937, 72 h, read-out: IC50

T1 sequence (P09874 whole entry, the tested form may be a part): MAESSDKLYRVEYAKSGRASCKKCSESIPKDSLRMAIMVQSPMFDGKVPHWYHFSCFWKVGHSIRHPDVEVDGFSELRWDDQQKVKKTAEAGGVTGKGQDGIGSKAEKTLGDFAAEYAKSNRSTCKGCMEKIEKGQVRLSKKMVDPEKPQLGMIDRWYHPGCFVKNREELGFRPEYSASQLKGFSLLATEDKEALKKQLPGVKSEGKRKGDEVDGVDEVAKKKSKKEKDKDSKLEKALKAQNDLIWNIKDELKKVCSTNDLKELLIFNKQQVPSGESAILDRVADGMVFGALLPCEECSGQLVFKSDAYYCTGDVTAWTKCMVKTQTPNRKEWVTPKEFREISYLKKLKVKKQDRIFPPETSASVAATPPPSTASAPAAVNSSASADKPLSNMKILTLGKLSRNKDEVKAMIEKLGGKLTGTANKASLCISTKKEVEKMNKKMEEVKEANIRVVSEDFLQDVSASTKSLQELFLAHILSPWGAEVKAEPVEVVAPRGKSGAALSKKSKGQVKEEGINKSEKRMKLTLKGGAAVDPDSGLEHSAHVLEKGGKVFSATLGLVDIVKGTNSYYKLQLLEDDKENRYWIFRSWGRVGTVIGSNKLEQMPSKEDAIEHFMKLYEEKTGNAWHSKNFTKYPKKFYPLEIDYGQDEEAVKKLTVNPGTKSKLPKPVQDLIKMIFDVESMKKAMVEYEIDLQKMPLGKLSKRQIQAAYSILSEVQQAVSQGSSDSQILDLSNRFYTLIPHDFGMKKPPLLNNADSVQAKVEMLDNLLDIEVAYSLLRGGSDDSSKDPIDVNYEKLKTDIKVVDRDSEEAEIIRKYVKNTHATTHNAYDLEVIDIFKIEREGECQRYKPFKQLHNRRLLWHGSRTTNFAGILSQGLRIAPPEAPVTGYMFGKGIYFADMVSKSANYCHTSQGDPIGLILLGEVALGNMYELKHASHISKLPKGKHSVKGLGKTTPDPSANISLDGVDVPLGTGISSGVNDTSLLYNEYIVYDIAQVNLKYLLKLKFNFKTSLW

NC(=O)n1ccc2ccc(-c3ccccc3)nc21
IC50 (HCC1937; [14]): > 200 µM
IC50 [1]: 0.27 µM
IC50 [2]: > 200 µM

NC(=O)n1ccc2ccc(N3CCCC3)nc21
IC50 (HCC1937; [14]): > 200 µM
IC50 [1]: 0.22 µM
IC50 [2]: 83.8 µM

CN(C)Cc1ccc(-c2ccc3ccn(C(N)=O)c3n2)cc1
IC50 (HCC1937; [14]): 13.5 µM
IC50 [1]: 0.63 µM
IC50 [2]: 19.7 µM

CN1CCN(Cc2ccc(-c3ccc4ccn(C(N)=O)c4n3)cc2)CC1
IC50 (HCC1937; [14]): 41.2 µM
IC50 [1]: 1.56 µM
IC50 [2]: 54.5 µM

CN(C)c1ccc(-c2ccc3ccn(C(N)=O)c3n2)cc1
IC50 (HCC1937; [14]): > 200 µM
IC50 [1]: 0.88 µM
IC50 [2]: > 200 µM

NC(=O)Cn1ccc2ccc(-c3ccc(CN4CCCC4)cc3)nc21
IC50 (HCC1937; [14]): 182 µM
IC50 [1]: > 5 µM
IC50 [2]: 182 µM

NC(=O)n1ccc2ccc(-c3ccc(C(=O)N4CCCCC4)cc3)nc21
IC50 (HCC1937; [14]): 72.3 µM
IC50 [1]: 2.9 µM
IC50 [2]: 24.4 µM

CN1CCN(c2ccc3ccn(C(N)=O)c3n2)CC1
IC50 (HCC1937; [14]): 111 µM
IC50 [1]: 0.77 µM
IC50 [2]: 138 µM

NC(=O)n1ccc2ccc(-c3ccc(-c4ccccc4)cc3)nc21
IC50 (HCC1937; [14]): > 200 µM
IC50 [1]: > 5 µM
IC50 [2]: 81.8 µM

C[C@]1(c2nc3c(C(N)=O)cccc3[nH]2)CCCN1 [VELIPARIB]
IC50 [3]: 39.7 µM
IC50 (HCC1937; hcc1937, read-out: IC50): 97.2 µM

NC(=O)n1ccc2ccc(-c3ccc(CN4CCCC4)cc3)nc21
IC50 (HCC1937; [14]): 15 µM
IC50 [1]: 0.28 µM
IC50 [2]: 21.7 µM

COc1ccc(-c2ccc3ccn(C(N)=O)c3n2)cc1
IC50 (HCC1937; [14]): > 200 µM
IC50 [1]: 3.76 µM
IC50 [2]: 162 µM

NC(=O)n1ccc2ccc(-c3ccc(CN4CCCCC4)cc3)nc21
Activity (MX1 [4]): 36%
IC50 [5]: 11.2 µM
Ratio IC50 (A2780 [6]): 3.9
Activity (Mus musculus [7]): Non-toxic
EC50 [8]: 0.4 µM
IC50 (HCC1937; [14]): 19.4 µM
Activity (Mus musculus [9]): 1%
IC50 (A2780 [10]): 2.9 µM
IC50 [1]: 0.07 µM
IC50 [2]: 22 µM

NC(=O)n1ccc2cccnc21
IC50 (HCC1937; [14]): > 200 µM
IC50 [1]: 2.5 µM
IC50 [2]: > 200 µM

O=C(c1cc(Cc2n[nH]c(=O)c3ccccc23)ccc1F)N1CCN(C(=O)C2CC2)CC1 [OLAPARIB]
Activity (Mus musculus [11]): Non-toxic
IC50 [5]: 41.9 µM
Activity (Mus musculus [12]): 0%
IC50 (HCC1937; Homo sapiens, HCC1937, 72 h): 10.3 µM
IC50 (A2780 [10]): 1 µM
Activity (MX1 [13]): 35%
IC50 [2]: 6.3 µM

NC(=O)n1ccc2ccc(-c3ccc[nH]3)nc21
IC50 (HCC1937; [14]): 61.4 µM
IC50 [1]: 0.93 µM
IC50 [2]: 87.1 µM

NC(=O)n1ccc2ccc(-c3ccc(F)c(C(=O)N4CCN(C(=O)C5CC5)CC4)c3)nc21
IC50 [1]: 1.12 µM

NC(=O)n1ccc2ccc(N3CCCCC3)nc21
IC50 [1]: 3 µM

NC(=O)n1ccc2ccc(-c3ccc(CN4CCOCC4)cc3)nc21
IC50 (HCC1937; [14]): 17.2 µM
IC50 [1]: 2.1 µM
IC50 [2]: 15.9 µM

NC(=O)n1ccc2ccc(-c3ccccc3F)nc21
IC50 [1]: 3 µM

NC(=O)n1ccc2ccc(-c3ccc(F)cc3)nc21
IC50 (HCC1937; [14]): > 200 µM
IC50 [1]: 0.27 µM
IC50 [2]: 61.1 µM
